Experimental findings from patent publication US11613542B2, “Sulfonylureas and sulfonylthioureas as NLRP3 inhibitors” (Inflazome Limited, priority 2017, dated 2023) are described below.

Counter-ions that a name gives are not always drawn.

The nature of this data set: Pharmacokinetic parameters in male Sprague Dawley rats (intravenous and oral administration). Type of data set: in vivo. The conditions noted are these: rat plasma, dose per compound (mg/kg). On the procedure: Pharmacokinetic parameters were determined in male Sprague Dawley rats (Charles River, UK, 250-350 g; or Vital River Laboratory Animal Technology Co Ltd, Beijing, China, 7-9 weeks old). Animals were individually housed during the study and maintained under a 12 h light/dark cycle. Animals had free access to food and water except that some orally dosed animals were food deprived overnight prior to the study.
For intravenous administration, compounds were formulated as a solution in water or DMSO:PBS [10:90] in 2 mL/kg dosing volume and administered via tail vein. For oral administration, compounds were formulated as a solution in water or DMSO:water [10:90] in 5 mL/kg dosing volume and administered orally.
Serial blood samples (about 120-300 μL) were taken from each animal at each of 8 time-points post dose (0.083, 0.25, 0.5, 1, 2, 4, 8 and 24 h) or at each of 12 time-points post dose (0.03, 0.1, 0.17, 0.25, 0.5, 1, 2, 4, 6, 8,12 and 24 h) or pre-dose and at each of 9 time-points post dose (0.25, 0.5, 1, 2, 4, 6, 8, 12 and 24 h). Samples were held on ice for no longer than 30 minutes before centrifugation (10,000 rpm (8,385 g) for 3 minutes; or 5,696 rpm (3,000 g) for 15 minutes) for plasma generation. Plasma was frozen on dry ice prior to bioanalysis. PK parameters were generated from LC-MS/MS data using Dotmatics or Phoenix WinNonlin 6.3 software.

For the compound `CC(c1cc(S(=O)(=O)NC(=O)Nc2c3c(cc4c2CCC4)CCC3)nn1C)N(C)C` (single isomer, unassigned; enantiomer 2) [Example 90, 5-(1-(Dimethylamino)ethyl)-N-((1,2,3,5,6,7-hexahydro-s-indacen-4-yl)carbamoyl)-1-methyl-1H-pyrazole-3-sulfonamide, Enantiomer 2], the apparent clearance CL/F (usually the apparent clearance, not corrected for the fraction that reaches the circulation) (male, Sprague Dawley, oral administration) was found to be 6 mL/min/kg. The Tmax (in general, the time from dosing to the highest level) (male, Sprague Dawley, oral administration, read-out: Tmax) was determined as 0.5 h. Also, where the note is “oral administration”, the exposure (AUC) (commonly concentration integrated over time) amounted to 11115.9 ng·h/mL; the Cmax (in general, the maximum level reached in the sampled fluid or tissue) is given as 5665.0 ng/mL; the T1/2 worked out at 1.1 h.
Where the note is “intravenous administration”, `CCn1nc(S(=O)(=O)NC(=O)Nc2c(-c3ccnc(OC)c3)ccc3c2CCC3)cc1CN(C)C` [Example 37, 5-((Dimethylamino)methyl)-1-ethyl-N-((5-(2-methoxypyridin-4-yl)-2,3-dihydro-1H-inden-4-yl)carbamoyl)-1H-pyrazole-3-sulfonamide] registered an AUC of 2710.4 ng·h/mL, a Cl of 10.5 mL/min/kg, a T1/2 of 3.8 h and a Vdss of 1.23 L/kg.
With `Cc1cc(-c2cc(F)cc(C(C)C)c2NC(=O)NS(=O)(=O)c2cc(CN(C)C)n(C)n2)n(C)n1` [Example 60, N-((2-(1,3-Dimethyl-1H-pyrazol-5-yl)-4-fluoro-6-isopropylphenyl)carbamoyl)-5-((dimethylamino)methyl)-1-methyl-1H-pyrazole-3-sulfonamide], for the setting “intravenous administration”, the AUC amounted to 259.1 ng·h/mL, the Cl was found to be 65.6 mL/min/kg, the T1/2 amounted to 0.5 h and the Vdss amounted to 0.98 L/kg.
Turning to `CC(C)c1cc(F)cc(-c2cccnc2)c1NC(=O)NS(=O)(=O)c1cc(CN(C)C)n(C)n1` [Example 61, 5-((Dimethylamino)methyl)-N-((4-fluoro-2-isopropyl-6-(pyridin-3-yl)phenyl)carbamoyl)-1-methyl-1H-pyrazole-3-sulfonamide], under “intravenous administration”, the AUC was 259.0 ng·h/mL, the Cl was 64.9 mL/min/kg, the T1/2 is 0.5 h and the Vdss came out at 0.75 L/kg.
On to `CC(C)c1cc(F)cc(-c2cccc(C#N)c2)c1NC(=O)NS(=O)(=O)c1cc(CN(C)C)n(C)n1` [Example 66, N-((3′-Cyano-5-fluoro-3-isopropyl-[1,1′-biphenyl]-2-yl)carbamoyl)-5-((dimethylamino)methyl)-1-methyl-1H-pyrazole-3-sulfonamide], for which, for the setting “intravenous administration”, the AUC stood at 375.4 ng·h/mL, the Cl came to 51.5 mL/min/kg, the T1/2 stood at 1.2 h and the Vdss is 1.14 L/kg.
For the setting “intravenous administration”, `COc1cc(-c2cc(F)cc(C(C)C)c2NC(=O)NS(=O)(=O)c2cc(CN(C)C)n(C(C)C)n2)ccn1` [Example 67, 5-((Dimethylamino)methyl)-N-((4-fluoro-2-isopropyl-6-(2-methoxypyridin-4-yl)phenyl)carbamoyl)-1-isopropyl-1H-pyrazole-3-sulfonamide] showed an exposure (AUC) of 247.8 ng·h/mL, a Cl of 67.2 mL/min/kg, a T1/2 of 0.3 h and a Vdss of 1.32 L/kg.
Under “intravenous administration”, `COc1cc(-c2cc(F)cc(C(C)C)c2NC(=O)NS(=O)(=O)c2cc(CN(C)C)n(C)n2)ccn1` [Example 68, 5-((Dimethylamino)methyl)-N-((4-fluoro-2-isopropyl-6-(2-methoxypyridin-4-yl)phenyl)carbamoyl)-1-methyl-1H-pyrazole-3-sulfonamide] came in with an AUC of 356.0 ng·h/mL, a Cl of 47.6 mL/min/kg, a T1/2 of 0.5 h and a Vdss of 0.8 L/kg.
Under “intravenous administration”, `CC(C)c1cc(F)cc(C2CCOCC2)c1NC(=O)NS(=O)(=O)c1cc(C(=O)N(C)C)n(C)n1` [Example 133, 3-(N-((4-Fluoro-2-isopropyl-6-(tetrahydro-2H-pyran-4-yl)phenyl)carbamoyl)sulfamoyl)-N,N,1-trimethyl-1H-pyrazole-5-carboxamide, sodium salt] returned an AUC of 182.5 ng·h/mL, a Cl of 91.3 mL/min/kg, a T1/2 of 2.3 h and a Vdss of 2.72 L/kg.
Under “intravenous administration”, `CC(C)c1cc(F)cc(-c2cnn(C)c2)c1NC(=O)NS(=O)(=O)c1cc(C(=O)N(C)C)n(C)n1` [Example 135, 3-(N-((4-Fluoro-2-isopropyl-6-(1-methyl-1H-pyrazol-4-yl)phenyl)carbamoyl)sulfamoyl)-N,N,1-trimethyl-1H-pyrazole-5-carboxamide, sodium salt] gave an area under the curve (AUC) of 661.2 ng·h/mL, a Cl of 25.2 mL/min/kg, a T1/2 of 12.1 h and a Vdss of 3.03 L/kg.
As to `CC(C)c1cc(F)cc(-c2cccnc2)c1NC(=O)NS(=O)(=O)c1cc(C(=O)N(C)C)n(C)n1` [Example 141, 3-(N-((4-Fluoro-2-isopropyl-6-(pyridin-3-yl)phenyl)carbamoyl)sulfamoyl)-N,N,1-trimethyl-1H-pyrazole-5-carboxamide, sodium salt], where the note is “intravenous administration”, the exposure (AUC) turned out to be 274.4 ng·h/mL, the Cl stood at 60.7 mL/min/kg, the T1/2 is 6.3 h and the Vdss amounted to 3.95 L/kg.
The corresponding values for `CC(C)c1cc(Cl)cc(C(C)C)c1NC(=O)NS(=O)(=O)c1cc(C(=O)N(C)C)n(C)n1` [Example 168, 3-(N-((4-Chloro-2,6-diisopropylphenyl)carbamoyl)sulfamoyl)-N,N,1-trimethyl-1H-pyrazole-5-carboxamide] are 353.3 ng·h/mL, 160.9 mL/min/kg, 1.3 h and 10.55 L/kg.
